pEC50: −log10 of the molar value. Starred links: 1 amine or outer side, 2 acyl side, 3 side chain; linkers in the order of their positions; H or OH if unused. Non-standard residues stand in square brackets, D forms with d. Residues, ends and D or L forms follow the SMILES beside them. *: point of attachment. dBip = N[C@H](Cc1ccc(-c2ccccc2)cc1)C(=O)O; Oic = O=C(O)[C@@H]1C[C@@H]2CCCC[C@@H]2N1; Phe(4-Cl) = N[C@@H](Cc1ccc(Cl)cc1)C(=O)O; Phe(4-I) = N[C@@H](Cc1ccc(I)cc1)C(=O)O; γGlu = O=C(O)[C@H](CCC(=O)[*:2])N[*:1]; NMeR = CN[C@@H](CCCNC(=N)N)C(=O)O; Palmitoyl = CCCCCCCCCCCCCCCC(=O)*; Tridecanoyl = CCCCCCCCCCCCC(=O)*; hArg = N=C(N)NCCCC[C@H](N)C(=O)O; 3Pal = N[C@@H](Cc1cccnc1)C(=O)O; Cha = N[C@@H](CC1CCCCC1)C(=O)O; NMeL = CN[C@@H](CC(C)C)C(=O)O; αMeL = CC(C)C[C@](C)(N)C(=O)O; αMeOrn = C[C@](N)(CCCN)C(=O)O; β3hP = O=C(O)C[C@@H]1CCCN1; Pip = O=C(O)[C@@H]1CCCCN1; Nle = CCCC[C@H](N)C(=O)O; AEEA = NCCOCCOCC(=O)O; Aib = CC(C)(N)C(=O)O; NPrGly = CCCNCC(=O)O
Experiments:
[1] = molecular target: T1, rat APJ receptor (Rattus norvegicus, UniProt Q9JHG3); experiment: [35S] GTPγS assay, rat APJ receptor; format: biochemical; conditions: rat APJ receptor, read-out: EC50 Rat APJ Receptor
T1 construct: expressed in transfected cells
T1 sequence (Q9JHG3 1-377): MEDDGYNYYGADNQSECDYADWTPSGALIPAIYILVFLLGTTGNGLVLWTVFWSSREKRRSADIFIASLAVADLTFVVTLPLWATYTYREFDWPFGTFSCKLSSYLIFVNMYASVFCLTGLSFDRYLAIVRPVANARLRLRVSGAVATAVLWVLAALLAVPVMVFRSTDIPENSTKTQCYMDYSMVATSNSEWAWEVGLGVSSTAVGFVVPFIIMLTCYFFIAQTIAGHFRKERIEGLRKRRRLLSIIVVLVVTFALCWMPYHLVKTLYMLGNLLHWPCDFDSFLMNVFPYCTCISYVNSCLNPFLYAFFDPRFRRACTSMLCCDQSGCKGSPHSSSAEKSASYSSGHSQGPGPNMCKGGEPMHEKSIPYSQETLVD
Protocol: The membranes were incubated with modified peptides in the assay buffer. […] Bound [^35S] GTPγS was separated from free radiolabel by filtration. The filter bound radioactivity was determined by liquid scintillation counting.

[2] = molecular target: T2, human APJ receptor (Homo sapiens, UniProt P35414); experiment: [35S] GTPγS assay, human APJ receptor; format: biochemical
T2 construct: expressed in transfected cells
T2 sequence (P35414 1-380): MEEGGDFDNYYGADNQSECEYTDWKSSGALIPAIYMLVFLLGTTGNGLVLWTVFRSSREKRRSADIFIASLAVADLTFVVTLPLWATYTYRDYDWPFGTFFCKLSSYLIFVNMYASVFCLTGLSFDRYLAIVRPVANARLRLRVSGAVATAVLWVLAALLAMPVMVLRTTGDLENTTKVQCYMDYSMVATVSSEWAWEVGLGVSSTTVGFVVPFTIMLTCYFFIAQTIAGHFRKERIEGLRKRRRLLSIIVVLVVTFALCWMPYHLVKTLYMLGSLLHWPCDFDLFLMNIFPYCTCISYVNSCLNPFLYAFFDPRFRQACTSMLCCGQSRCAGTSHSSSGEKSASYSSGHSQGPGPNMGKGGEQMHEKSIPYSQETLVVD

[3] = In vitro stability in rat plasma; format: in vitro ADME
Procedure, shortened: (§1)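 Incubations: 5 μM apelin peptide, 37° C., 4 hr, in rat plasma, liver or kidney homogenate. Read-out via high resolution LC-MS after MeOH/internal standard precipitation and centrifugation.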

[4] = In vitro stability in rat liver homogenate; format: in vitro ADME; conditions: tissue homogenate
Procedure, shortened: as §1

SMILES | pEC50 ([2]; human APJ receptor) | remaining at 4 h, 5 μM [3] [%] | pEC50 ([2]; Table 16) | further results
CCCCCCCCCCCCC(=O)N[C@@H](CCC(=O)NCCOCCOCC(=O)NCCOCCOCC(=O)N[C@@H](CCCCNC(=N)N)C(=O)N[C@H](CCCNC(=N)N)C(=O)N[C@@H](CCC(N)=O)C(=O)N[C@@H](CCCCNC(=N)N)C(=O)N1CCC[C@H]1C(=O)N[C@@H](CCCC)C(=O)N(C)[C@@H](CC(C)C)C(=O)N[C@@H](C)C(=O)N[C@@H](C)C(=O)N[C@@H](CCCCN)C(=O)NCC(=O)N1[C@H](C(=O)N[C@@H](Cc2ccc(I)cc2)C(=O)N2CCC[C@H]2C(=O)N[C@H](Cc2ccc(-c3ccccc3)cc2)C(=O)O)C[C@@H]2CCCC[C@@H]21)C(=O)O [compound 329] ({Tridecanoyl-γGlu-AEEA-AEEA}-[hArg][dR]Q[hArg]P[Nle][NMeL]AAKG[Oic][Phe(4-I)]P[dBip]-OH) | 7.43 |  |  | pEC50 [1]: 7.44
CCCCCCCCCCCCC(=O)N[C@@H](CCC(=O)NCCOCCOCC(=O)NCCOCCOCC(=O)N[C@@H](CCC(N)=O)C(=O)N[C@@H](CCCNC(=N)N)C(=O)N1CCC[C@H]1C(=O)N(C)[C@@H](CCCNC(=N)N)C(=O)N[C@@H](CC1CCCCC1)C(=O)N[C@@H](CO)C(=O)N[C@@H](Cc1c[nH]cn1)C(=O)N[C@@H](CCCCN)C(=O)NCC(=O)N1CCCC[C@H]1C(=O)N[C@@H](CCCC)C(=O)N1CCC[C@H]1C(=O)N[C@@H](Cc1ccc(Cl)cc1)C(=O)O)C(=O)O [compound 416] ({Tridecanoyl-γGlu-AEEA-AEEA}-QRP[NMeR][Cha]SHKG[Pip][Nle]P[Phe(4-Cl)]-OH) |  | 57.7 | 9.72 | 
CCCCCCCCCCCCC(=O)N[C@@H](CCC(=O)NCCOCCOCC(=O)NCCOCCOCC(=O)N[C@@H](CCC(N)=O)C(=O)N[C@@H](CCCNC(=N)N)C(=O)N1CCC[C@H]1C(=O)N(C)[C@@H](CCCCNC(=N)N)C(=O)N[C@@H](CC(C)C)C(=O)N[C@@H](CO)C(=O)N[C@@H](Cc1c[nH]cn1)C(=O)N[C@@H](CCCCN)C(=O)NCC(=O)N1CCC[C@H]1C(=O)N[C@@H](CCCC)C(=O)N1CCC[C@H]1C(=O)N[C@@H](Cc1ccc2ccccc2c1)C(=O)O)C(=O)O [compound 471] |  | 52 | 10.64 | remaining at 4 h, 5 μM [4]: < 1%
CCCCCCCCCCCCCCCC(=O)N[C@@H](CCC(=O)NCCOCCOCC(=O)NCCOCCOCC(=O)N[C@H](CCC(N)=O)C(=O)N[C@@H](CCCNC(=N)N)C(=O)N1CCC[C@H]1C(=O)N(C)[C@@H](CCCNC(=N)N)C(=O)N[C@@](C)(CC(C)C)C(=O)N[C@@H](CO)C(=O)N[C@@H](Cc1c[nH]cn1)C(=O)N[C@@](C)(CCCN)C(=O)NCC(=O)N1[C@H](C(=O)N[C@@H](CCCC)C(=O)N2CCC[C@H]2CC(=O)N[C@@H](Cc2ccc(Cl)cc2)C(=O)O)C[C@@H]2CCCC[C@@H]21)C(=O)O [compound 635] ({Palmitoyl-γGlu-AEEA-AEEA}-[dQ]RP[NMeR][αMeL]SH[αMeOrn]G[Oic][Nle][β3hP][Phe(4-Cl)]-OH) | 8.79 |  |  | 
CCCCCCCCCCCCCCCC(=O)N[C@@H](CCC(=O)NCCOCCOCC(=O)NCCOCCOCC(=O)N[C@H](CCC(N)=O)C(=O)N[C@@H](CCCNC(=N)N)C(=O)N1CCC[C@H]1C(=O)N(C)[C@@H](CCCNC(=N)N)C(=O)N[C@@](C)(CC(C)C)C(=O)N[C@@H](CO)C(=O)N[C@@H](Cc1c[nH]cn1)C(=O)N[C@@H](Cc1cccnc1)C(=O)NCC(=O)N1[C@H](C(=O)N[C@@H](CCCC)C(=O)N2CCC[C@H]2CC(=O)N[C@@H](Cc2ccc(Cl)cc2)C(=O)O)C[C@@H]2CCCC[C@@H]21)C(=O)O [compound 636] ({Palmitoyl-γGlu-AEEA-AEEA}-[dQ]RP[NMeR][αMeL]SH[3Pal]G[Oic][Nle][β3hP][Phe(4-Cl)]-OH) | 8.80 |  |  | 
CCCCCCCCCCCCCCCC(=O)N[C@@H](CCC(=O)NCCOCCOCC(=O)NCCOCCOCC(=O)N[C@H](CCC(N)=O)C(=O)N[C@@H](CCCNC(=N)N)C(=O)N1CCC[C@H]1C(=O)N(C)[C@@H](CCCNC(=N)N)C(=O)N[C@@H](CC1CCCCC1)C(=O)N[C@@H](CO)C(=O)N(CCC)CC(=O)N[C@@H](CCCCN)C(=O)NCC(=O)N1CCCC[C@H]1C(=O)N[C@@H](CCCC)C(=O)NC(C)(C)C(=O)N[C@@H](Cc1ccc(Cl)cc1)C(=O)O)C(=O)O [compound 644] ({Palmitoyl-γGlu-AEEA-AEEA}-[dQ]RP[NMeR][Cha]S[NPrGly]KG[Pip][Nle][Aib][Phe(4-Cl)]-OH) | 8.85 |  |  | 

Source: patent US11807693B2 (priority 2014, dated 2023)
